{"source": "patent US6376485B1", "about": "“Benzoxazoles with PDE-inhibiting activity” (Byk Gulden Lomberg Chemische Fabrik GmbH, priority 1998, dated 2002)", "key": {"PDE4": {"test_system": "PDE4", "test": "Inhibition of PDE4 activity (method of Bauer and Schwabe, adapted to microtiter plates)", "type": "biochemical", "details": "inhibitory concentration as -log IC50 (mol/l)", "procedure": "The activity test was carried out according to the method of Bauer and Schwabe, which was adapted to microtiter plates (Naunyn-Schmiedeberg's Arch. Pharmacol. 1980, 311, 193-198). In this test, the PDE reaction takes place in the first step. In a second step, the resulting 5′-nucleotide is cleaved by a 5′-nucleotidase of the snake venom from Crotalus atrox to give the uncharged nucleoside. In the third step, the nucleoside is separated from the remaining charged substrate on ion-exchange columns. The columns are eluted directly into minivials to which 2 ml of scintillator fluid is additionally added for counting […].\nThe inhibitory values determined for the compounds according to the invention [inhibitory concentration as -log IC50 (mol/l)] results from the following Table A, in which the numbers of the compounds correspond to the numbers of the examples."}}}
{"molecule": "COc1ccc(C2(C#N)CCC(=O)CC2)c2nc(C(C)C)oc12", "note": "[Compound 3, 4-Cyano-4-(2-isopropyl-7-methoxybenzoxazol-4-yl)cyclohexanone]", "values": [{"measurement": "Inhibition of the PDE4 activity, -log IC50", "setting": "PDE4", "value": 6.96, "unit": "mol/l"}, {"measurement": "melting point", "value": 118, "unit": "°C"}]}
{"molecule": "COc1ccc(C2(C#N)CCC(C(=O)O)CC2)c2nc(C(C)C)oc12", "note": "(stereo not drawn) [Compound 6, cis-4-Cyano-4-(2-isopropyl-7-methoxybenzoxazol-4-yl)cyclohexane-1-carboxylic acid]", "values": [{"measurement": "Inhibition of the PDE4 activity, -log IC50", "setting": "PDE4", "value": 7.69, "unit": "mol/l"}, {"measurement": "melting point", "value": 217.5, "unit": "°C"}]}
{"molecule": "COc1ccc(C2(C#N)CCC(O)CC2)c2nc(C(C)C)oc12", "note": "(stereo not drawn) [Compound 4, cis-4-Cyano-4-(2-isopropyl-7-methoxybenzoxazol-4-yl)cyclohexan-1-ol]", "values": [{"measurement": "Inhibition of the PDE4 activity, -log IC50", "setting": "PDE4", "value": 7.77, "unit": "mol/l"}, {"measurement": "melting point", "value": 116.5, "unit": "°C"}]}
{"molecule": "COc1ccc(C2(C#N)CCC(C(N)=O)CC2)c2nc(C(C)C)oc12", "note": "(stereo not drawn) [Compound 7, Cis-4-Cyano-4-(2-isopropyl-7-methoxybenzoxazol-4-yl)cyclohexane-1-carboxamide]", "values": [{"measurement": "Inhibition of the PDE4 activity, -log IC50", "setting": "PDE4", "value": 7.65, "unit": "mol/l"}, {"measurement": "melting point", "value": 228, "unit": "°C"}]}
{"molecule": "COc1ccc(C2(C#N)CCOCC2)c2nc(C(C)C)oc12", "note": "[Compound 2, 4a-Cyano-4e-(2-isopropyl-7-methoxybenzoxazol-4-yl)-tetrahydropyran]", "values": [{"measurement": "Inhibition of the PDE4 activity, -log IC50", "setting": "PDE4", "value": 7.86, "unit": "mol/l"}, {"measurement": "melting point", "value": 156.5, "unit": "°C"}]}
{"molecule": "COc1ccc(C2(C#N)CCOCC2)c2nc(C)oc12", "note": "[Compound 1, 4a-Cyano-4e-(2-methyl-7-methoxybenzoxazol-4-yl)tetrahydropyran]", "values": [{"measurement": "Inhibition of the PDE4 activity, -log IC50", "setting": "PDE4", "value": 6.87, "unit": "mol/l"}, {"measurement": "melting point", "value": 72, "unit": "°C"}]}
{"molecule": "COC(=O)C1CCC(C#N)(c2ccc(OC)c3oc(C(C)C)nc23)CC1", "note": "(stereo not drawn) [Compound 5, Methyl cis-4-cyano-(2-isopropyl-7-methoxybenzoxazol-4-yl)cyclohexane-1-carboxylate]", "values": [{"measurement": "Inhibition of the PDE4 activity, -log IC50", "setting": "PDE4", "value": 6.46, "unit": "mol/l"}, {"measurement": "melting point", "value": 83, "unit": "°C"}]}
